Measurements taken from patent publication US8802597B2, “Herbicidal pyrimidines” (E I du Pont de Nemours and Company, priority 2003, dated 2014).

Key:
Type in all cases: in vivo
[1] = tested on: barnyardgrass (Echinochloa crus-galli); experiment: Test B flooded paddy test; conditions: Flood, scale 0 to 100
Method in brief: (§1)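 Visual injury scoring (0 = no effect, 100 = complete control) versus controls made 13 to 15 days after treatment in the greenhouse. Test species were grown in flooded paddy to the 2-leaf stage: rice, barnyardgrass, umbrella sedge, duck salad.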

[2] = tested on: duck salad (Heteranthera limosa); experiment: Test B flooded paddy test; conditions: Flood, scale 0 to 100
Method in brief: as §1

[3] = tested on: umbrella sedge (Cyperus difformis); experiment: Test B flooded paddy test; conditions: Flood, scale 0 to 100
Method in brief: as §1

rice (Oryza sativa) = experiment: Test B flooded paddy test; conditions: Flood, scale 0 to 100
Method in brief: as §1

wild oat (Avena fatua) = experiment: Test B postemergence; conditions: scale 0 to 100 (0 no effect, 100 complete control)
Method in brief: (§2)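 Visual injury scored 0 (no effect) to 100 (complete control) versus untreated controls after 13 to 15 days in greenhouse. Treatments were pre- or postemergence sprays of surfactant-containing solvent formulations; postemergence plants at 1- to 4-leaf stage, 2 to 18 cm.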

[4] = tested on: blackgrass (Alopecurus myosuroides); experiment: Test B postemergence; conditions: scale 0 to 100 (0 no effect, 100 complete control)
Method in brief: as §2

[5] = tested on: velvetleaf (Abutilon theophrasti); experiment: Test B pre/postemergence; conditions: for Velvetleaf plant response rating: Postemergence; for Plant response rating, Velvetleaf: Preemergence
Method in brief: as §2

[6] = tested on: wheat (Triticum aestivum); experiment: Test B pre/postemergence; conditions: for Wheat plant response rating: Postemergence; for Plant response rating, Wheat: Preemergence
Method in brief: as §2

[7] = tested on: cocklebur (Xanthium strumarium); experiment: Test B pre/postemergence; conditions: for Cocklebur plant response rating: Postemergence; for Plant response rating, Cocklebur: Preemergence
Method in brief: as §2

[8] = tested on: crabgrass (Digitaria sanguinalis); experiment: Test B pre/postemergence; conditions: for Crabgrass plant response rating: Postemergence; for Plant response rating, Crabgrass: Preemergence
Method in brief: as §2

[9] = tested on: giant foxtail (Setaria faberii); experiment: Test B pre/postemergence; conditions: for Foxtail, Giant plant response rating: Postemergence; for Plant response rating, Foxtail, Giant: Preemergence
Method in brief: as §2

[10] = tested on: barnyardgrass (Echinochloa crus-galli); experiment: Test B pre/postemergence; conditions: for Barnyardgrass plant response rating: Postemergence; for Plant response rating, Barnyardgrass: Preemergence
Method in brief: as §2

[11] = tested on: lambsquarters (Chenopodium album); experiment: Test B pre/postemergence; conditions: for Lambsquarters plant response rating: Postemergence; for Plant response rating, Lambsquarters: Preemergence
Method in brief: as §2

[12] = tested on: Surinam grass (Brachiaria decumbens); experiment: Test B pre/postemergence; conditions: for Surinam Grass plant response rating: Postemergence; for Plant response rating, Surinam Grass: Preemergence
Method in brief: as §2

[13] = tested on: pigweed (Amaranthus retroflexus); experiment: Test B pre/postemergence; conditions: for Pigweed plant response rating: Postemergence; for Plant response rating, Pigweed: Preemergence
Method in brief: as §2

[14] = tested on: morningglory (Ipomoea coccinea); experiment: Test B pre/postemergence; conditions: for Morningglory plant response rating: Postemergence; for Plant response rating, Morningglory: Preemergence
Method in brief: as §2

corn (Zea mays) = experiment: Test B pre/postemergence; conditions: for Corn plant response rating: Postemergence; for Plant response rating, Corn: Preemergence
Method in brief: as §2

[15] = 62 g ai/ha, scale 0 to 100 (0 no effect, 100 complete control)
[16] = 125 g ai/ha, scale 0 to 100 (0 no effect, 100 complete control)
[17] = 62 g ai/ha, scale 0 to 100, 0 no effect, 100 complete control

## COC(=O)c1nc(-c2ccc(Cl)cc2)nc(N)c1Br [Compound 83]
[1]; 125 g ai/ha
  Plant response rating, Barnyardgrass: 0
[1]; 500 g ai/ha
  Plant response rating, Barnyardgrass: 0
[2]; 125 g ai/ha
  Plant response rating, Ducksalad: 100
[2]; 500 g ai/ha
  Plant response rating, Ducksalad: 100
[3]; 125 g ai/ha
  Plant response rating, Sedge, Umbrella: 90
[3]; 500 g ai/ha
  Plant response rating, Sedge, Umbrella: 100
Rice (Oryza sativa); 125 g ai/ha
  Plant response rating, Rice: 0
Rice (Oryza sativa); 500 g ai/ha
  Plant response rating, Rice: 0
Wild oat (Avena fatua); 62 g ai/ha
  Oat, Wild plant response rating: 0
Wild oat (Avena fatua); 125 g ai/ha
  Oat, Wild plant response rating: 40
[4]; 62 g ai/ha
  Blackgrass plant response rating: 50
[4]; 125 g ai/ha
  Blackgrass plant response rating: 60
[5]; [15]
  Velvetleaf plant response rating: 80
[5]; [16]
  Velvetleaf plant response rating: 90
  Plant response rating, Velvetleaf: 60
[5]; [17]
  Plant response rating, Velvetleaf: 50
[6]; [15]
  Wheat plant response rating: 0
[6]; [16]
  Wheat plant response rating: 30
  Plant response rating, Wheat: 50
[6]; [17]
  Plant response rating, Wheat: 20
[7]; [15]
  Cocklebur plant response rating: 90
[7]; [16]
  Cocklebur plant response rating: 100
  Plant response rating, Cocklebur: 50
[7]; [17]
  Plant response rating, Cocklebur: 10
[8]; [15]
  Crabgrass plant response rating: 50
[8]; [16]
  Crabgrass plant response rating: 60
  Plant response rating, Crabgrass: 60
[8]; [17]
  Plant response rating, Crabgrass: 30
[9]; [15]
  Foxtail, Giant plant response rating: 40
[9]; [16]
  Foxtail, Giant plant response rating: 50
  Plant response rating, Foxtail, Giant: 10
[9]; [17]
  Plant response rating, Foxtail, Giant: 0
[10]; [15]
  Barnyardgrass plant response rating: 50
[10]; [16]
  Barnyardgrass plant response rating: 80
  Plant response rating, Barnyardgrass: 30
[10]; [17]
  Plant response rating, Barnyardgrass: 20
[11]; [15]
  Lambsquarters plant response rating: 100
[11]; [16]
  Lambsquarters plant response rating: 100
  Plant response rating, Lambsquarters: 90
[11]; [17]
  Plant response rating, Lambsquarters: 70
[12]; [15]
  Surinam Grass plant response rating: 50
[12]; [16]
  Surinam Grass plant response rating: 60
  Plant response rating, Surinam Grass: 10
[12]; [17]
  Plant response rating, Surinam Grass: 0
[13]; [15]
  Pigweed plant response rating: 100
[13]; [16]
  Pigweed plant response rating: 100
  Plant response rating, Pigweed: 100
[13]; [17]
  Plant response rating, Pigweed: 80
[14]; [15]
  Morningglory plant response rating: 60
[14]; [16]
  Morningglory plant response rating: 100
  Plant response rating, Morningglory: 10
[14]; [17]
  Plant response rating, Morningglory: 0
Corn (Zea mays); [15]
  Corn plant response rating: 10
Corn (Zea mays); [16]
  Corn plant response rating: 10
  Plant response rating, Corn: 0
Corn (Zea mays); [17]
  Plant response rating, Corn: 0

## Nc1nc(-c2ccc(Cl)cc2)nc(C(=O)O)c1Br [Compound 88]
[1]; 125 g ai/ha
  Plant response rating, Barnyardgrass: 0
[1]; 500 g ai/ha
  Plant response rating, Barnyardgrass: 0
[2]; 125 g ai/ha
  Plant response rating, Ducksalad: 90
[2]; 500 g ai/ha
  Plant response rating, Ducksalad: 90
[3]; 125 g ai/ha
  Plant response rating, Sedge, Umbrella: 60
[3]; 500 g ai/ha
  Plant response rating, Sedge, Umbrella: 90
Rice (Oryza sativa); 125 g ai/ha
  Plant response rating, Rice: 0
Rice (Oryza sativa); 500 g ai/ha
  Plant response rating, Rice: 0
Wild oat (Avena fatua); 62 g ai/ha
  Oat, Wild plant response rating: 40
Wild oat (Avena fatua); 125 g ai/ha
  Oat, Wild plant response rating: 50
[4]; 62 g ai/ha
  Blackgrass plant response rating: 40
[4]; 125 g ai/ha
  Blackgrass plant response rating: 60
[5]; [15]
  Velvetleaf plant response rating: 90
[5]; [16]
  Velvetleaf plant response rating: 100
  Plant response rating, Velvetleaf: 90
[5]; [17]
  Plant response rating, Velvetleaf: 70
[6]; [15]
  Wheat plant response rating: 50
[6]; [16]
  Wheat plant response rating: 60
  Plant response rating, Wheat: 70
[6]; [17]
  Plant response rating, Wheat: 50
[7]; [15]
  Cocklebur plant response rating: 100
[7]; [16]
  Cocklebur plant response rating: 100
  Plant response rating, Cocklebur: 90
[7]; [17]
  Plant response rating, Cocklebur: 60
[8]; [15]
  Crabgrass plant response rating: 70
[8]; [16]
  Crabgrass plant response rating: 80
  Plant response rating, Crabgrass: 70
[8]; [17]
  Plant response rating, Crabgrass: 50
[9]; [15]
  Foxtail, Giant plant response rating: 60
[9]; [16]
  Foxtail, Giant plant response rating: 70
  Plant response rating, Foxtail, Giant: 30
[9]; [17]
  Plant response rating, Foxtail, Giant: 10
[10]; [15]
  Barnyardgrass plant response rating: 90
[10]; [16]
  Barnyardgrass plant response rating: 90
[11]; [15]
  Lambsquarters plant response rating: 100
[11]; [16]
  Lambsquarters plant response rating: 100
[12]; [15]
  Surinam Grass plant response rating: 80
[12]; [16]
  Surinam Grass plant response rating: 80
  Plant response rating, Surinam Grass: 50
[12]; [17]
  Plant response rating, Surinam Grass: 20
[13]; [15]
  Pigweed plant response rating: 100
[13]; [16]
  Pigweed plant response rating: 100
[14]; [15]
  Morningglory plant response rating: 60
[14]; [16]
  Morningglory plant response rating: 90
  Plant response rating, Morningglory: 10
[14]; [17]
  Plant response rating, Morningglory: 0
Corn (Zea mays); [15]
  Corn plant response rating: 70
Corn (Zea mays); [16]
  Corn plant response rating: 80
  Plant response rating, Corn: 10
Corn (Zea mays); [17]
  Plant response rating, Corn: 0
